This note sets out measurements from patent US20150299219A1, “BICYCLIC PYRAZOLONE COMPOUNDS AND METHODS OF USE” (Calitor Sciences, LLC, priority 2014, published 2015).

The data set can be described thus: Pharmacokinetic profiles in rats. Type of data set: in vivo. Conditions: for clearance (CL) / AUC(0-t) / half-life / Vd: iv dosing, 1 mg/kg; for AUC(0-t) / half-life / Vd / bioavailability: rat, plasma; for Vd: read-out: Vss; for bioavailability: po, bioavailability (F). On the procedure: The LC/MS/MS system used in the analysis consists of an Agilent 1200 Series vacuum degasser, binary pump, well-plate autosampler, thermostatted column compartment, the Agilent G6430 Triple Quadrupole Mass Spectrometer with an electrosprayionization (ESI) source. Quantitative analysis was carried out using MRM mode. The parameters for MRM transitions are in the Table A.
An Agilent XDB-C18, 2.1×30 mm, 3.5 μM column was used for the analysis. 5 μL of the samples were injected. Analysis condition: The mobile phase was 0.1% formic acid in water (A) and 0.1% formic acid in methanol (B). The flow rate was 0.4 mL/min. And the gradient of Mobile phase was in the Table B.
Alternatively, an Agilent 6330 series LC/MS/MS spectrometer equipped with G1312A binary pumps, a G1367A autosampler and a G1314C UV detector were used in the analysis. An ESI source was used on the LC/MS/MS spectrometer. The analysis was done in positive ion mode as appropriate and the MRM transition for each analyte was optimized using standard solution. A Capcell MP-C18 100×4.6 mm I.D., […] column (Phenomenex, Torrance, Calif., USA) was used during the analysis. The mobile phase was 5 mM ammonia acetate, 0.1% MeOH in water (A): 5 mM ammonia acetate, 0.1% MeOH in acetonitrile (B) (70/30, v/v). The flow rate was 0.6 mL/min. Column was maintained at ambient temperature. 20 μL of the samples were injected.
The compounds disclosed herein are assessed in pharmacokinetic studies in mice, rats, dogs or monkeys. The compounds are administered as a water solution, 2% HPMC+1% TWEEN®80 in water solution, 5% DMSO+5% solutol in saline, 4% MC suspension or capsule. For the intravenous administration, the animals are generally given at 1 or 2 mg/kg dose. For the oral (p.o.) dosing, mice and rats are generally given 5 or 10 mg/kg dose, and dogs and monkeys are generally given 10 mg/kg dose. The blood samples (0.3 mL) are drawn at 0.25, 0.5, 1.0, 2.0, 3.0, 4.0, 6.0, 8.0, 12 and 24 h time points or 0.083, 0.25, 0.5, 1.0, 2.0, 4.0, 6.0, 8.0 and 24 h time points and centrifuged at 3,000 or 4000 rpm for 2 to 10 min. The plasma solutions are collected, and stored at −20° C. or −70° C. until analyzed by LC/MS/MS as described above.

`O=C(Nc1ccc(Oc2ccnc(NC(=O)C3CC3)c2)cc1)c1c2n(n(-c3ccccc3)c1=O)CCC2` [Ex. 2, N-(4-((2-(cyclopropanecarboxamido)pyridin-4-yl)oxy)phenyl)-2-oxo-1-phenyl-2,4,5,6-tetrahydro-1H-pyrrolo[1,2-b]pyrazole-3-carboxamide]: the “clearance (CL)” value is 0.55 mL/min/kg, the AUC(0-t) was 27200 ng·h/mL, the half-life is 7.71 h and the Vd came out at 0.313 L/kg. This compound also had a bioavailability of 68.1%.
Consider `CC(=O)Nc1cc(Oc2ccc(NC(=O)c3c4n(n(-c5ccccc5)c3=O)CCC4)cc2)ccn1` [Ex. 3, N-(4-((2-acetamidopyridin-4-yl)oxy)phenyl)-2-oxo-1-phenyl-2,4,5,6-tetrahydro-1H-pyrrolo[1,2-b]pyrazole-3-carboxamide], for which the “clearance (CL)” value was determined as 0.65 mL/min/kg, the area under the curve AUC(0-t) is 26300 ng·h/mL, the half-life was 3.83 h and the Vd was determined as 0.18 L/kg. The bioavailability came out at 94.5%.
On the same counts, the results for `CC(=O)Nc1cc(Oc2ccc(NC(=O)c3c4n(n(-c5ccccc5)c3=O)CCOC4)nc2)ccn1` [Ex. 12, N-(5-((2-acetamidopyridin-4-yl)oxy)pyridin-2-yl)-2-oxo-1-phenyl-2,4,6,7-tetrahydro-1H-pyrazolo[5,1-c][1,4]oxazine-3-carboxamide] are 0.333 mL/min/kg, 46700 ng·h/mL, 6.68 h, 0.136 L/kg and 72.1%.
The corresponding values for `O=C(Nc1ccc(Oc2ccnc(NC(=O)C3CC3)c2)cn1)c1c2n(n(-c3ccccc3)c1=O)CCC2` [Ex. 14, N-(5-((2-(cyclopropanecarboxamido)pyridin-4-yl)oxy)pyridin-2-yl)-2-oxo-1-phenyl-2,4,5,6-tetrahydro-1H-pyrrolo[1,2-b]pyrazole-3-carboxamide] are 1.27 mL/min/kg, 12900 ng·h/mL, 5.01 h, 0.359 L/kg and 87.9%.
Turning to `O=C(Nc1ccc(Oc2ccnc(NC(=O)C3CC3)c2)cc1)c1c2n(n(-c3ccccc3)c1=O)CCOC2` [Ex. 19, N-(4-((2-(cyclopropanecarboxamido)pyridin-4-yl)oxy)phenyl)-2-oxo-1-phenyl-2,4,6,7-tetrahydro-1H-pyrazolo[5,1-c][1,4]oxazine-3-carboxamide], the “clearance (CL)” value was found to be 0.3 mL/min/kg, the AUC(0-t) was found to be 50100 ng·h/mL, the half-life was 7.09 h and the Vd came to 0.15 L/kg. The compound also registered a bioavailability of 66.7%.
